For data set [1], the system named is single cycle replicable HIV NL4-3 virions. The data set is described as follows: single-cycle HIV-1 replication assay in HeLa cells (p24 ELISA). The format is cell-based. Particulars: for EC50: Human immunodeficiency virus 1, NL43, HeLa, 72 h, read-out: Anti-HIV-1 activity (EC50). (In general: An ELISA detects its analyte on a solid surface through an enzyme-linked reagent.)

Data set [2] is described as follows: in vitro. As to conditions: human.
Details of data set [3]: method as in PMID 27659398, PMID 21728968, PMID 22214459, PMID 21767569. As to conditions: cited from earlier work.
In data set [4] the test system is HIV-1. Set-up: method as in PMID 27659398, PMID 21728968, PMID 22214459, PMID 21767569. Particulars: cited from earlier work.
Data set [5] has as its system HIV-1 integrase (IN). Set-up: method as in PMID 27659398, PMID 21728968, PMID 22214459, PMID 21767569. As to conditions: cited from earlier work.

In general, EC50 refers to the concentration at which the effect is half-maximal.

Structures are written as SMILES.

For `Cc1cccc(Cn2c(C(=O)C=C(O)C(=O)O)nc3ccccc32)c1` [Compound 13c, 4-(1-(3-methylbenzyl)-1H-benzo[d]imidazol-2-yl)-2-hydroxy-4-oxo-2-butenoic acid], in data set [1], the “SI (selectivity index, CC50/EC50 ratio)” value came out at 5.7 and the EC50 is 75 µM. This molecule returned a CC50 at 72 h in data set [2] of 430 µM.

Turning to `Cc1ccccc1Cn1c(C(=O)C=C(O)C(=O)O)nc2ccccc21` [Compound 13b, 4-(1-(2-methylbenzyl)-1H-benzo[d]imidazol-2-yl)-2-hydroxy-4-oxo-2-butenoic acid], in data set [1], the “SI (selectivity index, CC50/EC50 ratio)” value worked out at 9.8 and the half-maximal effective concentration (EC50) worked out at 60 µM. In addition, the CC50 at 72 h in data set [2] stood at 590 µM.

As for `COc1cccc(Cn2c(C(=O)C=C(O)C(=O)O)nc3ccccc32)c1` [Compound 13i, 4-(1-(3-methoxybenzyl)-1H-benzo[d]imidazol-2-yl)-2-hydroxy-4-oxo-2-butenoic acid], in data set [1], the “SI (selectivity index, CC50/EC50 ratio)” value stood at 5.4 and the concentration giving a half-maximal response (EC50) was 90 µM. In data set [2], this molecule showed a CC50 at 72 h of 490 µM.

`Cc1nnc(C(=O)NC(C)(C)c2nc(C(=O)NCc3ccc(F)cc3)c(O)c(=O)n2C)o1` [Raltegravir, reference compound]: in data set [1], the EC50 is 0.9 µM. The molecule further registered a CC50 in data set [2] of more than 500 µM.

With `O=C(O)C(O)=CC(=O)c1nc2ccccc2n1Cc1ccccc1` [Compound 13a, 4-(1-benzyl-1H-benzo[d]imidazol-2-yl)-2-hydroxy-4-oxo-2-butenoic acid], in data set [1], the “SI (selectivity index, CC50/EC50 ratio)” value is listed as 4.5 and the EC50 is 110 µM. In data set [2], the CC50 at 72 h turned out to be 500 µM.

With `O=C(O)C(O)=CC(=O)c1nc2ccccc2n1Cc1cccc(F)c1` [Compound 13h, 4-(1-(3-fluorobenzyl)-1H-benzo[d]imidazol-2-yl)-2-hydroxy-4-oxo-2-butenoic acid], in data set [1], the “SI (selectivity index, CC50/EC50 ratio)” value was 8.7 and the EC50 came out at 55 µM. In addition, the CC50 at 72 h in data set [2] came out at 480 µM.

As for `O=C(O)/C(O)=C/C(=O)c1cccn1Cc1ccc(F)cc1` [L-731,988], the cell toxicity result in data set [3] is reported as “low cell toxicity”.

`COc1cccc2c1c(C(=O)/C=C(\O)C(=O)O)cn2Cc1ccc(F)cc1` [CHI-1043]: the “inhibitory activity in cellular assays” value in data set [4] is reported as “submicromolar”. For the same molecule, the “inhibitory activity in enzymatic assays” value in data set [5] was “submicromolar”. Also, the cell toxicity result in data set [3] is reported as “low cell toxicity”.

On to `Cc1ccc(Cn2c(C(=O)C=C(O)C(=O)O)nc3ccccc32)cc1` [Compound 13d, 4-(1-(4-methylbenzyl)-1H-benzo[d]imidazol-2-yl)-2-hydroxy-4-oxo-2-butenoic acid], for which, in data set [1], the “SI (selectivity index, CC50/EC50 ratio)” value is on record as 11.6 and the concentration for a half-maximal effect (EC50) was found to be 50 µM. In data set [2], this molecule had a CC50 at 72 h of 580 µM.

For `O=C(O)C(O)=CC(=O)c1nc2ccccc2n1Cc1ccccc1F` [Compound 13g, 4-(1-(2-fluorobenzyl)-1H-benzo[d]imidazol-2-yl)-2-hydroxy-4-oxo-2-butenoic acid], in data set [1], the “SI (selectivity index, CC50/EC50 ratio)” value turned out to be 13.7 and the EC50 is 40 µM. This molecule came in with a CC50 at 72 h in data set [2] of 550 µM.

For the molecule `O=C(O)C(O)=CC(=O)c1nc2ccccc2n1Cc1cccc(Cl)c1` [Compound 13f, 4-(1-(3-chlorobenzyl)-1H-benzo[d]imidazol-2-yl)-2-hydroxy-4-oxo-2-butenoic acid], in data set [1], the “SI (selectivity index, CC50/EC50 ratio)” value came to 7.4 and the 50% effective concentration (EC50) turned out to be 55 µM. Besides, the CC50 at 72 h in data set [2] was determined as 410 µM.

Consider `O=C(O)C(O)=CC(=O)c1nc2ccccc2n1Cc1ccccc1Cl` [Compound 13e, 4-(1-(2-chlorobenzyl)-1H-benzo[d]imidazol-2-yl)-2-hydroxy-4-oxo-2-butenoic acid], for which, in data set [1], the “SI (selectivity index, CC50/EC50 ratio)” value was 2.4 and the concentration giving a half-maximal response (EC50) amounted to 155 µM. The molecule further gave a CC50 at 72 h in data set [2] of 380 µM.
